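Each compound was tested at five concentrations against cells in 96-well plates for 48 hours. TGI denotes the concentration required for complete inhibition of growth.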
Legend:
Assay in all cases: inhibition of tumour cell growth, NCI panel, 48 h
786-0 renal = tested on: 786-0 renal
A498 renal = tested on: A498 renal
A549 NSCLC = tested on: A549 NSCLC
ACHN renal = tested on: ACHN renal
BT-549 breast = tested on: BT-549 breast
CAKI-1 renal = tested on: CAKI-1 renal
CCRF-CEM leukemia = tested on: CCRF-CEM leukemia
DU-145 prostate = tested on: DU-145 prostate
EKVX NSCLC = tested on: EKVX NSCLC
HCT-116 colon = tested on: HCT-116 colon
HCT-15 colon = tested on: HCT-15 colon
HL-60(TB) leukemia = tested on: HL-60(TB) leukemia
HOP-62 NSCLC = tested on: HOP-62 NSCLC
HOP-92 NSCLC = tested on: HOP-92 NSCLC
HS 578T breast = tested on: HS 578T breast
HT29 colon = tested on: HT29 colon
IGROV1 ovarian = tested on: IGROV1 ovarian
K-562 leukemia = tested on: K-562 leukemia
KM12 colon = tested on: KM12 colon
LOX IMVI melanoma = tested on: LOX IMVI melanoma
M14 melanoma = tested on: M14 melanoma
MALME-3M melanoma = tested on: MALME-3M melanoma
MCF7 breast = tested on: MCF7 breast
MDA-MB-231 breast = tested on: MDA-MB-231 breast
MDA-MB-435 = tested on: MDA-MB-435
MDA-N = tested on: MDA-N
MOLT-4 leukemia = tested on: MOLT-4 leukemia
NCI-H226 lung = tested on: NCI-H226 lung
NCI-H460 lung = tested on: NCI-H460 lung
NCI-H522 lung = tested on: NCI-H522 lung
NCI/ADR-RES ovarian = tested on: NCI/ADR-RES ovarian
OVCAR-3 ovarian = tested on: OVCAR-3 ovarian
OVCAR-5 ovarian = tested on: OVCAR-5 ovarian
OVCAR-8 ovarian = tested on: OVCAR-8 ovarian
PC-3 prostate = tested on: PC-3 prostate
RXF 393 renal = tested on: RXF 393 renal
SF-268 CNS = tested on: SF-268 CNS
SF-295 CNS = tested on: SF-295 CNS
SF-539 CNS = tested on: SF-539 CNS
SK-MEL-2 melanoma = tested on: SK-MEL-2 melanoma
SK-MEL-28 melanoma = tested on: SK-MEL-28 melanoma
SK-MEL-5 melanoma = tested on: SK-MEL-5 melanoma
SN12C renal = tested on: SN12C renal
SNB-19 CNS = tested on: SNB-19 CNS
SNB-75 CNS = tested on: SNB-75 CNS
SR leukemia = tested on: SR leukemia
SW-620 colon = tested on: SW-620 colon
T-47D breast = tested on: T-47D breast
TK-10 renal = tested on: TK-10 renal
U251 CNS = tested on: U251 CNS
UACC-257 melanoma = tested on: UACC-257 melanoma
UO-31 renal = tested on: UO-31 renal

`C=C(C)C1CCC2(CO)C(O)CC3(C)C(CCC4C5(C)CCC(O)C(C)(C)C5CCC43C)C12` (configuration not stated) was tested, and the TGI (786-0 renal) was over 100 µM, the TGI (A498 renal) was 31.9 µM and the TGI (A549 NSCLC) was 32.6 µM. The TGI (ACHN renal) was 15.4 µM, the TGI (BT-549 breast) was over 100 µM and the TGI (CAKI-1 renal) was over 100 µM. For the same compound, the TGI (CCRF-CEM leukemia) was over 100 µM, the TGI (DU-145 prostate) was over 100 µM and the TGI (EKVX NSCLC) was 32.6 µM. It also gave a TGI (HCT-116 colon) of 73.7 µM, a TGI (HCT-15 colon) of 88 µM and a TGI (HL-60(TB) leukemia) of over 100 µM. It also gave a TGI (HOP-62 NSCLC) of 27 µM, a TGI (HOP-92 NSCLC) of 25.2 µM and a TGI (HS 578T breast) of 90.7 µM. For the same compound, the TGI (HT29 colon) was 54.7 µM, the TGI (IGROV1 ovarian) was 30 µM and the TGI (K-562 leukemia) was 33.3 µM. It also gave a TGI (KM12 colon) of over 100 µM, a TGI (LOX IMVI melanoma) of 24.2 µM and a TGI (M14 melanoma) of over 100 µM. The TGI (MALME-3M melanoma) was 32 µM, the TGI (MCF7 breast) was 43.6 µM and the TGI (MDA-MB-231 breast) was 57.2 µM. The TGI (MDA-MB-435) was 38.3 µM, the TGI (MDA-N) was over 100 µM and the TGI (MOLT-4 leukemia) was over 100 µM. It also gave a TGI (NCI-H226 lung) of over 100 µM, a TGI (NCI-H460 lung) of 64.3 µM and a TGI (NCI-H522 lung) of 42.4 µM. For the same compound, the TGI (NCI/ADR-RES ovarian) was 81.5 µM, the TGI (OVCAR-3 ovarian) was 29.2 µM and the TGI (OVCAR-5 ovarian) was over 100 µM. It also gave a TGI (OVCAR-8 ovarian) of 20.7 µM, a TGI (PC-3 prostate) of 60.3 µM and a TGI (RXF 393 renal) of 9.65 µM. The TGI (SF-268 CNS) was over 100 µM, the TGI (SF-295 CNS) was 10.3 µM and the TGI (SF-539 CNS) was 30 µM. For the same compound, the TGI (SK-MEL-2 melanoma) was 32 µM, the TGI (SK-MEL-28 melanoma) was 32.5 µM and the TGI (SK-MEL-5 melanoma) was 21.3 µM. The TGI (SN12C renal) was over 100 µM, the TGI (SNB-19 CNS) was 84.1 µM and the TGI (SNB-75 CNS) was 9.5 µM. For the same compound, the TGI (SR leukemia) was over 100 µM, the TGI (SW-620 colon) was over 100 µM and the TGI (T-47D breast) was 11.3 µM. For the same compound, the TGI (TK-10 renal) was 30.2 µM, the TGI (U251 CNS) was 9.96 µM and the TGI (UACC-257 melanoma) was 24.9 µM. It also gave a TGI (UO-31 renal) of 26.7 µM.
